Test results published in patent publication US20040249128A1, “Molecules for disease detection and treatment” (priority 2001, published 2004).

How the values were obtained:
endothelial cell lines = assay: Microarray expression analysis of endothelial cell lines treated with TNF-α; format: cell-based, human; conditions: 10 ng/ml TNF-α, within four hours; in five out of the eight endothelial cell lines
dendritic cells = assay: Microarray expression analysis during differentiation and maturation of dendritic cells; format: cell-based, human; conditions: maturation of dendritic cells induced by TNF-alpha, versus immature dendritic cells (Lci)
Experimental: Human CD34 positive precursor cells were isolated by positive immunomagnetic selection from the leukapheresis of normal volunteer donors who had undergone G-CSF-induced stem cell mobilization. The purified CD34+ cells were cultured in vitro for 10 days in the presence of recombinant GM-CSF, Stem Cell Factor, TNF-alpha, TGF-beta1, and Flt3-Ligand. The resulting expanded cell population was enriched for cell cluster-forming immature dendritic cells (Lci) by sedimentation over a 7.5% BSA column at 1 g for 30 min. Immature dendritic cells were cultured for two additional days in the presence of the same combination of cytokines supplemented with LPS, IL-1beta, TNF-alpha, or double strand RNA. In addition, cluster-forming immature dendritic cells were disrupted by vigorous pipetting and cultured for two additional days in the presence of the same combination of cytokines without addition of any additional factor. The partially mature dendritic cells derived by mechanical disruption of cell clusters are characterized by the presence of intracellular rod-shaped structures called Birbeck's Granules. The dendritic cell population produced using this method was called Birbeck's Granule-positive dendritic cells, or BG. […]

[1] = system: human umbilical vein endothelial cells (HVECs); conditions: TNF-α treated compared with untreated cells; cited from earlier work
[2] = system: vascular smooth muscle cells (SMCs); conditions: cited from earlier work
[3] = system: bovine aortic endothelial cells; conditions: confluent cells; cited from earlier work
[4] = system: human fibroblastic IMR-90 cells; conditions: cited from earlier work
[5] = intranasal; greater than those produced by hydrocortisone; cited from earlier work

Compound | expression of SEQ ID NO:58 (endothelial cell lines) | expression of SEQ ID NO:96 (dendritic cells) | increase of cellular secretions of MCP-1 [1] | relative proportion of collagen types IV and V [2] | incorporation of [3H]proline into collagenase-digestible proteins (CDP) and noncollagenous proteins (NCP) ([2]; confluent cultures) | suppression of [3H]proline incorporation [3] | suppression of [3H]proline incorporation [4] | anti-inflammatory and vasoconstrictive effects relative to hydrocortisone [5]
TNF-α | downregulated by at least two-fold | greater than two-fold expression | 119 fold | decreases | suppresses | not observed | not observed | 
C[C@H]1C[C@H]2[C@@H]3CCC4=CC(=O)C=C[C@]4(C)[C@@]3(Cl)[C@@H](O)C[C@]2(C)[C@@]1(O)C(=O)CO [beclomethasone, Beclomethasone] |  |  |  |  |  |  |  | 5000 times
